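Protocol summary: plate cells (96-well), add compound at 5 concentrations, incubate 48 h, interpolate endpoints linearly. GI50 = concentration required for 50% inhibition of growth. TGI marks complete inhibition of growth.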
Experiments:
Test in all cases: NCI anticancer screen, dose series, 48 h
[1] = system: A549 NSCLC
[2] = system: SK-MEL-28 melanoma
[3] = system: SNB-19 CNS
[4] = system: SN12C renal
[5] = system: A498 renal
[6] = system: HL-60(TB) leukemia
[7] = system: RPMI-8226 leukemia
[8] = system: KM12 colon
[9] = system: SF-268 CNS
[10] = system: MDA-MB-435

SMILES	TGI [1]	TGI [2]	TGI [3]	TGI [4]	TGI [5]	TGI [6]	TGI [7]	TGI [8]	TGI [9]	GI50 [1]	GI50 [2]	GI50 [3]	GI50 [4]	GI50 [5]	GI50 [7]	GI50 [8]	GI50 [9]	GI50 [10]	TGI [10]
O=C(Nc1c(-c2nc3ccccc3[nH]2)sc(=S)n1-c1ccccc1)c1ccccc1	> 100 µM	> 100 µM	> 100 µM	> 100 µM	> 100 µM	> 100 µM	> 100 µM	> 100 µM	> 100 µM										
O=C(CCC(=O)Nc1ccc(Cl)cc1)CC(=O)c1ccc(F)cc1	> 100 µM	> 100 µM	> 100 µM	> 100 µM		> 100 µM	> 100 µM	> 100 µM	> 100 µM										
CCC[CH2][Sn]([CH2]CCC)([O]C(=O)c1cccc(F)c1)[O]C(=O)c1cccc(F)c1	9.45 µM	2.02 µM	1.39 µM	3.16 µM	1.98 µM		2.02 µM	2.79 µM	2.53 µM	2.89 µM	0.703 µM	0.369 µM	1.29 µM	0.467 µM	0.329 µM	1.29 µM	1.16 µM		
Cc1ccc(C)c(NC(=O)c2cc(-c3ccc([N+](=O)[O-])cc3)nc(N)n2)c1	> 100 µM	> 100 µM	> 100 µM	> 100 µM	> 100 µM	> 100 µM	> 100 µM	> 100 µM	> 100 µM										
O=c1cc(Cl)nc[nH]1	> 100 µM	> 100 µM	> 100 µM	> 100 µM	> 100 µM	> 100 µM	> 100 µM	> 100 µM	> 100 µM										
CC(=O)OC1CCn2nnc(COC(=O)NC(C)C)c21 (configuration not stated)	> 100 µM	> 100 µM	> 100 µM	> 100 µM			> 100 µM	> 100 µM											
CC(c1ccc(Br)cc1)C(C(=O)O)C(=O)O (configuration not stated)	> 100 µM	> 100 µM	> 100 µM	> 100 µM		> 100 µM	> 100 µM	> 100 µM	> 100 µM										
CCCNCc1nc2ccc(Br)cc2c(=O)n1CCC	35 µM	29 µM	30.5 µM	26.7 µM	32 µM	30.8 µM	> 100 µM	29.3 µM	26.9 µM										
O=c1/c(=C/c2ccc(Cl)cc2Cl)sc2nc3ccccc3n12	> 100 µM	> 100 µM	> 100 µM	> 100 µM	> 100 µM	> 100 µM		> 100 µM	> 100 µM										
O=c1c2ccc3cccc4c(=O)cc(c5ccccc15)-c2c34	> 100 µM	> 100 µM	> 100 µM	> 100 µM	> 100 µM	> 100 µM		> 100 µM	> 100 µM										
Cc1ccccc1C(=O)Oc1ccc(Oc2ccccc2)cc1	> 100 µM		> 100 µM	> 100 µM	> 100 µM	> 100 µM	> 100 µM	> 100 µM	> 100 µM										
Cc1cc(NS(=O)(=O)c2ccc(NC(=O)c3cccc4c(N)c5ccccc5nc34)cc2)no1	> 100 µM	44.2 µM	34 µM	40.3 µM	52 µM		62.6 µM	58.3 µM	76.9 µM										
CC(C)C(=O)N[C@@H](C)C(=O)N(Cc1ccc2ccccc2c1)N=O	> 100 µM	> 100 µM	> 100 µM	> 100 µM	> 100 µM		> 100 µM		> 100 µM										
N=C(c1ccccc1)N(O)C1CCCCC1	> 100 µM	> 100 µM	> 100 µM	> 100 µM		> 100 µM		> 100 µM	> 100 µM										
C=C1CC(CCCl)(c2ccccc2)OC1=O (configuration not stated)	> 100 µM	22.2 µM	> 100 µM	> 62.7 µM	> 100 µM	44.8 µM	71.5 µM	> 100 µM	> 90.5 µM										
CC1=CC(C)(C)N=C2SC(c3ccc(Cl)cc3)=NN12	> 100 µM	> 100 µM	> 100 µM		83.6 µM	32.5 µM	49.8 µM	> 100 µM	> 100 µM										
Cc1ccc(NC(=O)/C(CC(=O)c2c[n+](=O)c3ccccc3n2O)=N\NC(=O)C[n+]2ccccc2)cc1	> 100 µM	> 100 µM	> 100 µM	> 100 µM	> 100 µM	> 100 µM	> 100 µM	> 100 µM	> 100 µM										
C(=C\c1csnn1)/c1cccnc1	> 100 µM	> 100 µM	> 100 µM	> 100 µM	> 100 µM	> 100 µM	> 100 µM	> 100 µM	> 100 µM										

SMILES	TGI [1]	TGI [2]	TGI [3]	TGI [4]	TGI [5]	TGI [6]	TGI [7]	TGI [8]	TGI [9]	GI50 [1]	GI50 [2]	GI50 [3]	GI50 [4]	GI50 [5]	GI50 [7]	GI50 [8]	GI50 [9]	GI50 [10]	TGI [10]
CCCCCCCCCCCC(=O)OCC1OC(n2cc(F)c(=O)[nH]c2=O)C(N)C(OC(=O)CCCCCCCCCCC)C1O (configuration not stated)	> 100 µM	> 100 µM	> 100 µM	> 100 µM	> 100 µM	> 100 µM	> 100 µM	> 100 µM	> 100 µM										
COc1ccc2c3c1C(=O)CCC3CO2 (configuration not stated)	> 100 µM	> 100 µM	> 100 µM	> 100 µM	> 100 µM	> 100 µM	> 100 µM	> 100 µM	> 100 µM										
COc1cc2c(c(OC)c1OC)-c1[nH]ncc1CC2	> 100 µM	> 100 µM	> 100 µM	> 100 µM	> 100 µM	> 100 µM		> 100 µM	> 100 µM										
O=c1ccccc2cccc(O)c12	> 100 µM	> 100 µM	> 100 µM	> 100 µM	> 100 µM	> 100 µM	> 100 µM												
O=C1CCCC/C1=C/C=C/c1ccccc1	> 100 µM	> 100 µM	> 100 µM	> 100 µM	> 100 µM	62.8 µM	> 100 µM	> 100 µM	> 100 µM										
CCOC(=O)/N=C(\N)SCc1ccccc1	> 100 µM	> 100 µM	> 100 µM	> 100 µM	> 100 µM	> 100 µM	> 100 µM	> 100 µM	> 100 µM										
COc1ccc2c(c1)c(C1(c3cn(C)c4ccc(OC)cc34)C(=O)Nc3ccc(F)cc31)cn2C		25.5 µM	> 100 µM	31.5 µM	75.3 µM		> 100 µM	> 100 µM	> 100 µM		5.3 µM	12.2 µM	4.82 µM	13.6 µM	6.77 µM	5.63 µM	5.7 µM	3.77 µM	> 100 µM
Nc1ccc(Nc2nc(F)nc(-c3c4ccccc4c4n3CCS4)n2)cc1	31.2 µM	33.3 µM	30.3 µM	33.4 µM				26.5 µM	37.1 µM										
Cc1c(C(=O)/C=C/c2ccc(Cl)cc2)[n+](=O)c2ccccc2n1[O-]	33.6 µM	32.6 µM	27.8 µM	23.3 µM	29.2 µM	35.2 µM	42.4 µM	22.7 µM	28.6 µM										
O=C1/C(=C/c2ccccc2Cl)N=C(c2ccccc2)N1Cc1ccco1	> 100 µM	> 100 µM	> 100 µM	> 100 µM	76.6 µM		> 100 µM	> 100 µM	> 100 µM	27.7 µM	44.7 µM	> 100 µM	50.6 µM	24.3 µM	25.4 µM	36.1 µM	50.2 µM	20.1 µM	49.9 µM
Nc1ccc2c(c1)C(=O)c1c(F)cccc1-2	> 100 µM	> 100 µM	> 100 µM	> 100 µM	> 100 µM		> 100 µM	> 100 µM	> 100 µM										> 100 µM
N#Cc1ccccc1C#C/C=C\C#Cc1ccc(OCCCNC(=O)c2cc3ccccc3[nH]2)cc1	> 100 µM	> 100 µM	39.7 µM		36.5 µM			44.2 µM	> 100 µM	22.9 µM	32 µM	16.5 µM		16.1 µM		16.3 µM	30.6 µM	19 µM	42.7 µM
Cn1c(CCC#N)nc2ccc(Br)cc2c1=O	> 100 µM	> 100 µM		> 100 µM	> 100 µM	> 100 µM	> 100 µM	> 100 µM	> 100 µM										
O=C(OCCOCBr)c1ccccc1	> 100 µM	> 100 µM	> 100 µM	> 100 µM	> 100 µM	> 100 µM	> 100 µM	> 100 µM	> 100 µM										
COc1ccc(C(c2ccc(C(C)C)cc(=O)c2O)c2c(O)cc3oc(-c4ccccc4)cc(=O)c3c2O)cc1 (configuration not stated)	> 100 µM	> 100 µM	16.7 µM	70.9 µM	51.5 µM	28.8 µM	37.3 µM												
COc1cnc2c(c1)C(=O)c1c-2n(CCCn2ccnc2)c(=O)c2cc(Cl)ccc12	> 100 µM	> 100 µM	> 100 µM		0.557 µM		0.987 µM	> 100 µM	> 100 µM	0.0663 µM	0.611 µM	0.0321 µM		0.113 µM	0.0504 µM	0.238 µM	0.0343 µM	0.145 µM	1.29 µM
O=C(O)/C(=C/c1ccccc1[N+](=O)[O-])c1ccccc1	> 100 µM	> 100 µM	> 100 µM	> 100 µM	> 100 µM	> 100 µM	> 100 µM	> 100 µM	> 100 µM										
